According to US10822317B2, “Methods and compositions for wound healing” (QBiotics Limited, priority 2013, dated 2020):

How the values were obtained:
[1] = test system: human neonatal fibroblasts; experiment: Scratch closure, human neonatal fibroblasts, Method 1; format: cell-based
Description: The ability of early. passage neonatal foreskin fibroblasts (NFF) cultured in RPMI 1640-10% foetal calf serum to migrate across a scratch wound made in a confluent monolayer following treatment with purified compounds or plant extracts was determined using one or more of the following three methods.
Cells were seeded in 16-mm diameter wells (24-well plates), allowed to become confluent and 2 scratches made in each well using a sterile plastic pipette tip. The medium was removed, the wells washed with phosphate-buffered saline pH 7.2 (PBS) to remove dislodged cells, fresh medium added followed by serial 10-fold dilutions of pure compound or plant extract (2 μL). Incubation was continued for 16 to 30 hr. The experiment was terminated when the scratch edges of untreated cultures had closed approximately 25% of the initial gap. The monolayers were washed with PBS, fixed with ethanol and stained with 0.05% crystal violet. Photomicrographs of each well (EVOS microscope) were printed and each scratch measured at 3 places to determine the mean width. Accelerated wound closure-was considered to be significant if the remaining gap was <40% of the gap of the untreated controls: […]

[2] = test system: human peripheral blood monocytes; experiment: Differentiation of monocytes into macrophages; format: cell-based; conditions: 10-fold dilutions; 4 days; adherence and morphology
Description: To determine potential effects of Compound 1 and fifteen other epoxy-tigliane compounds in the array on monocyte differentiation, human peripheral blood mononuclear cells (PBMCs) were isolated by Ficoll-Paque sedimentation of heparinised blood from a human donor, and plated at 100,000 cells/well in RPMI-1640 10% FCS. Duplicate wells were treated with 10-fold dilutions of the compounds and incubated at 37° C. for 4 days. The wells were scored visually for cell attachment and morphology, then washed twice with PBS, stained with sulfurhodamine and the incorporate stain quantitated in an ELISA reader. The plates were then washed with water and stained with 1% crystal violet in methanol for photography and scoring of adherent cell morphology.

[3] = test system: infected bone wound; infectious vasculitis in the ear; experiment: Veterinary case studies 8 and 9, tree kangaroo wounds; format: in vivo, Dendrolagus lumholtzi
Description: Seven dogs (Canis lupus familiaris) and one tree kangaroo (Dendrolagus humholzii) with chronic, non-healing wounds that were unresponsive to current veterinary standards-of-care for these indications were treated with Compound 1 by independent veterinarians. A second tree kangaroo and a spectacled flying fox (Pteropus conspicillatus) with wounds unsuited for initial treatment with current standards-of-care were also treated with Compound 1. All cases were managed as open wounds without the use of dressings or other bandaging during the course of treatment with Compound 1 and the subsequent period of wound resolution. Unless stated in individual case studies, no concomitant medications were used over the course of treatments with Compound 1.
The patient was treated for 1 month with injectable antibiotics ceftazidime (Fortum) and trimethoprim sulphamethoxazole (TMS). […] Within 10 minutes of the application of Compound 1 gel there was a purulent discharge from the treated area. • On presentation 8 days after the first treatment a purulent discharge was oozing from 2 of the 3 wounds on the leg. The other wound (smallest lesion on the heal) had contracted and commenced healing. A further treatment of 0.15 mL of 5 mg/mL gel formulation of Compound 1 was used to treat each of the two open wounds (one over the ankle joint, the other on the base of the foot pad). A slow IV. infusion of sodium iodide was also given. • A further 15 days later (23 days after initial treatment) several mLs of thick purulent pus was squeezed from the wound on the pad of the foot before forcing 0.15 mL of 5 mg/mL gel formulation of Compound 1 into the drained wound sinus. • One week later there was significant improvement. in the infection. A small piece of bone was removed from the hole in the foot pad. There was no pus evident but there was a serous discharge. A further 0.2 mL. of the Compound 1 gel was applied to each of lesions, one over the ankle, the other underneath the foot. A slow IV infusion of sodium iodide was also delivered. Limb is now weight bearing. but the heal and foot pad is still very firm with inflammation and the animal's gait is very uneven and strongly favouring the undamaged hind leg. • A further 15 days later the wound over the ankle joint had fully closed and hair was growing back. The wound on the heal of the foot pad had contracted to less than 50% of its size at the previous visit and the surrounding skin and tissue is soft, pliable and normal.
Case notes: • The patient presented as a young injured animal found in the wild. • Patient was very weak, dehydrated and anaemic. […] Patient was placed on fluid therapy and medicated with anti-nausea drug maropitant citrate (cerenia) and two injectable antibiotic formulations Tribacteral (trimethoprim, sulfadiazine) and ceftazidime (fortum). • After 9 days on a fluid drip the patient's condition had improved but there was trauma to the right ear and likely infectious vasculitis and gangrene. Surgery was not possible because of significant anaesthetic risk due to the patient's highly compromised condition. Instead, treatment with a gel formulation of Compound 1 was initiated. • Three treatments of 0.1 mL of 5 mg/mL strength Compound 1 gel were applied to the affected area at 7 day intervals. The only concurrent medication during this time was the cephalosporin antibiotics deftazidime (fortum). • At 7 days after the first treatment of Compound 1 gel, a tightly adhering eschar covered the wound surface.

[4] = Case 8, 15 days after the fourth application

| SMILES | % closure compared to control ([1]; 30 ng/mL) [%] | % closure compared to control ([1]; 100 ng/mL) [%] | Differentiation endpoint (endpoint concentration in dilution series for induction of macrophage phenotype) [2] [ng/mL] | time to purulent discharge from the treated area ([3]; Case 8, tree kangaroo, infected bone wound, first application 0.1 mL gel 5 mg/mL per lesion) [min] | wound outcome, wound over the ankle joint ([3]; Case 8, 4 applications gel 5 mg/mL, 15 days after the fourth application) | limb function [3, 4] | wound on the heal of the foot pad, % of its size at the previous visit [3, 4] | reduction of wound area ([3]; Case 9, tree kangaroo, ear, 3 x 0.1 mL gel 5 mg/mL at 7 day intervals, 14 days after initial treatment) | wound status ([3]; Case 9, 25 days) | wound outcome ([3]; Case 9, 67 days) | staining pattern / growth of fibroblasts under the microscope ([1]; 24 hours post scratch) |
| --- | --- | --- | --- | --- | --- | --- | --- | --- | --- | --- | --- |
| CCC(C)C(=O)OC1C(C)C2(O)C(C3OC3(CO)C(O)C3(O)C(=O)C(C)=CC32)C2C(C)(C)C12OC(=O)C(C)CC (centres unmarked) [Compound 2, 12,13-di-(2-methylbutanoyl)-6,7-epoxy-4,5,9,12,13,20-hexahydroxy-1-tigliaen-3-one] | 130 | 129 | 1 |  |  |  |  |  |  |  |  |
| CC=C(C)C(=O)OC1C(C)C2(O)C(C3OC3(CO)C(O)C3(O)C(=O)C(C)=CC32)C2C(C)(C)C12OC(=O)C(C)CC (centres unmarked) [Compound 1, 12-tigloyl-13-(2-methylbutanoyl)-6,7-epoxy-4,5,9,12,13,20-hexahydroxy-1-tigliaen-3-one] | 166 | 146 | 1 | ≤ 10 | fully closed | fully weight bearing | less than 50% | approximately 50% | healthy tissue was present over the entire area of the wound | totally resolved and there was full hair coverage over the ear | growing in a multilayered fashion |
